These results are taken from the SangsterLogP compilation.

With `Fc1ccc(F)cc1`, the log partition coefficient (logP) (in general, the decadic logarithm of the partition coefficient of the neutral form, usually between octanol and water) came out at 2.13.
Under `COc1cc(C(=O)NN)ccn1` stands -0.1.
Turning to `COc1cccc(N)c1`, the logP was 0.93.
In turn, `CC(=O)c1ccc(OCC(=O)O)cc1` yielded a logP of 0.87.
Compound `O=S(=O)(c1ccccc1)c1ccccc1` had a logP of 2.4.
For the compound `Nc1ccn(C2C=CC(CO)O2)c(=O)n1` (configuration not stated), the logP was -1.55.
Under `CC(C)NCC(O)c1ccc([N+](=O)[O-])cc1` (configuration not stated) stands 1.28; under `CN(C)S(=O)(=O)c1ccc(N)cc1`, 0.67; under `C=CCC1(CCCC)C(=O)NC(=O)NC1=O`, 2.31.
As to `OCC1OC(n2cnc3c(S)ncnc32)C(O)C1O` (configuration not stated), the logP was -0.6.
In the case of `Nc1ccc(C(=O)NCC(=O)O)cc1` it was -0.89.
On to `O=C(O)c1ncccc1O`, for which the logP was -1.27.
Compound `CCN(CC)c1ccccc1` displayed a logP of 3.31.
In the case of `C#CC` it was 0.94; in that of `OC1OC[C@@H](O)[C@@H](O)[C@H]1O` (some centres not stated), -2.32.
On to `CC(=O)c1cccc(OCC(=O)O)c1`, for which the log partition coefficient (logP) amounted to 0.98.
For `Cc1ccnc2c(O)cccc12`, the logP amounted to 2.41.
The compound `CC(=O)c1ccc(Br)cc1` returned a logP of 2.43.
Consider `CC(=O)c1ccc(N)cc1`, for which the logP is 0.83.
`CC(Oc1ccccc1)C(=O)NC1C(=O)N2C1SC(C)(C)C2C(=O)O` (configuration not stated) had a logP of 2.2.
For the compound `O=NN1CCCCC1`, the logP amounted to 0.36.
In turn, `CNc1ccccc1` displayed a logP of 1.66.
In the case of `COc1ccc(CC(=O)O)cc1`, the logP came to 1.42.
For the compound `O=C1CC(=O)NC(=O)N1`, the log partition coefficient (logP) was -1.47.
Compound `CC(=O)C(C#N)=NNc1ccc([N+](=O)[O-])cc1[N+](=O)[O-]` yielded a logP of 3.4.
With `Nc1nc(N)c2nc(-c3ccccc3)c(N)nc2n1`, the logP was 0.98.
As to `Cc1ccccc1N(C)C`, the logP is 2.85.
`CC(C)NC(=O)C=Cc1ccc([N+](=O)[O-])o1` came in with a logP of 1.34.
In the case of `Cc1cc(C(=O)NN)ccn1`, the logP is -0.37.
Consider `COc1cc(CCN)cc(OC)c1Br`, for which the logP was determined as 2.03.
In turn, `O=C(O)c1ccc(F)cc1` showed a logP of 2.07.
Take `CNC(=O)Oc1cccc([N+](=O)[O-])c1`: the lipophilicity (logP) stood at 1.39.
In the case of `CSc1nnc(C(C)C)c(=O)n1N`, the log partition coefficient (logP) stood at 1.01.
For `CCc1cccc2ccccc12`, the logP came out at 4.4.
`Clc1ccccn1`: the logP was determined as 1.22.
Regarding `CC[C@H](C)[C@H](N)C(=O)O`, the logP was -1.7.
The compound `CC(C)c1nnc(N2CCOCC2)n(N)c1=O` yielded a logP of 0.49.
Under `O=C(O)COc1ccccc1I` stands 2.33.
Compound `O=[N+]([O-])c1ccccc1O` displayed a logP of 1.79.
`N#CCc1ccccc1` showed a logP of 1.56.
In the case of `CSc1ccc2c(c1)N(CCC1CCCCN1C)c1ccccc1S2` (configuration not stated) it was 5.9.
Under `COc1ccc(N)cc1` stands 0.95; under `CCCCCCC(C)=O`, 2.37; under `CC(C)CO`, 0.76.
Under `OCC=Cc1ccccc1` stands 1.95; under `CCOc1cccc(O)c1`, 1.98.
Compound `O=C(NC(CO)C(O)c1ccc([N+](=O)[O-])cc1)C(Br)(Br)Br` (configuration not stated) showed a logP of 2.17.
Turning to `Nc1cc[nH]c(=O)n1`, the logP was -1.73.
In the case of `CCCCCO` it was 1.51; in that of `Nc1cccc(O)c1`, 0.21.
Take `O=C(Oc1ccccc1)c1ccccc1`: the logP amounted to 3.59.
On to `NC(=O)N(CCCl)N=O`, for which the log partition coefficient (logP) was found to be 0.57.
For the compound `Oc1ccccc1O`, the logP is 0.88.
Under `CCCCN(CCCC)N=O` stands 2.63; under `NS(=O)(=O)c1cccc([N+](=O)[O-])c1`, 0.55; under `Cn1cnc2c1c(=O)[nH]c(=O)n2C`, -0.78.
In the case of `CC(=O)C=Cc1ccccc1` it was 2.07; in that of `Cc1ccccc1OCC(=O)O`, 1.98; in that of `c1ccc2cc3c(ccc4ccccc43)cc2c1`, 5.76.
As to `N[C@@H](Cc1c[nH]c2ccccc12)C(=O)O`, the logP was -1.06.
`COC(=O)C(C#N)=NNc1cc(Cl)c(Cl)cc1Cl` showed a lipophilicity (logP) of 5.15.
Compound `CC(=O)Nc1ccc(OCC(O)CNC(C)C)cc1` (configuration not stated) had a logP of 0.79.
For `CN1C(=O)CC(=O)N(c2ccccc2)c2cc(Cl)ccc21`, the logP came to 2.12.
On to `CC1=C(C(=O)Nc2ccccc2)SCCO1`, for which the logP is 2.14.
`O=C(NC(O)Cc1ccc([N+](=O)[O-])cc1)C(F)(F)F` (configuration not stated): the logP is 1.46.
In the case of `CCCCCn1nnc2ccccc21` it was 3.22; in that of `OCCBr`, 0.23.
In the case of `CCCCC(CC)CN` (configuration not stated) it was 2.82; in that of `O=[N+]([O-])c1cc[n+]([O-])c2c([N+](=O)[O-])cccc12`, 0.76; in that of `CCCCNCCCC`, 2.83.
Under `Brc1ccncc1` stands 1.54.
In turn, `O=C(O)COc1ccccc1` came in with a logP of 1.34.
Turning to `N#Cc1ccc(C(=O)O)cc1`, the logP was determined as 1.56.
`COC(=O)C(C#N)=NNc1cc(C(F)(F)F)ccc1Cl` returned a logP of 4.42.
As for `CC(N)C(O)c1cccc(O)c1` (configuration not stated), the logP was -0.27.
In turn, `C=C1C(=O)OC2CC(C)C3C=CC(=O)C3(C)C(O)C12` (configuration not stated) registered a logP of 0.87.
In the case of `CC1(C)S[C@@H]2[C@H](NC(=O)COc3ccccc3)C(=O)N2[C@H]1C(=O)O` it was 2.09.
Compound `Nc1ccc(C(=O)O)c(O)c1` gave a logP of 0.89.
`Oc1ccc2ccccc2c1`: the logP was found to be 2.7.
In the case of `O=C(O)Cc1ccc([N+](=O)[O-])cc1` it was 1.39; in that of `Cc1ccccc1S(N)(=O)=O`, 0.84; in that of `Oc1ccnc(S)n1`, -0.28.
`Cc1ccc2cccc(C)c2c1` showed a logP of 4.44.
On to `Cl[C@H]1[C@H](Cl)[C@@H](Cl)[C@@H](Cl)[C@H](Cl)[C@H]1Cl`, for which the logP stood at 3.72.
Turning to `CCCNCC(C)C`, the log partition coefficient (logP) came out at 2.07.
`c1ccc(-c2ccccc2)cc1` registered a logP of 3.98.
`CNC(=O)Oc1cccc(OC)c1` came in with a logP of 1.3.
The compound `Nc1ccc2cc3ccc(N)cc3nc2c1` displayed a logP of 1.83.
Under `O=C(O)c1ccc(O)cc1O` stands 1.63; under `CCOC(=O)C1(c2ccccc2)CCN(C)CC1`, 2.72.
In the case of `NC(=O)Cc1ccccn1` it was -0.65.
Under `O=C(O)CCCCn1nnc2ccccc21` stands 0.48.
`Cc1cc(O)c(C(C)(C)C)cc1CC(N)=O` had a logP of 2.67.
For `NCc1cccnc1`, the logP is -0.32.
In the case of `O=C(O)c1ccccc1Oc1ccccc1` it was 3.11.
Consider `Cc1cnc(NS(=O)(=O)c2ccc(N)cc2)nc1`, for which the logP turned out to be 0.34.
`O=c1ccn([C@H]2C[C@H](F)[C@@H](CO)O2)c(=O)[nH]1`: the logP was -0.49.
`C#C` gave a log partition coefficient (logP) of 0.37.
`CCC(C)=O` yielded a logP of 0.29.
In the case of `CCCCCCCCCCCC(=O)O`, the logP was determined as 4.6.
In the case of `O=C(O)C(c1ccccc1)c1ccccc1`, the logP is 3.09.
Take `O=C(O)COc1ccccc1Br`: the logP came to 2.04.
`Nc1cccc([N+](=O)[O-])c1` yielded a logP of 1.37.
With `NC(N)=S`, the logP was -1.08.
`Nc1ccccc1[N+](=O)[O-]` returned a logP of 1.85.
Under `COc1cccc([N+](=O)[O-])c1` stands 2.16; under `O=C(O)COC1Cc2ccccc2C1`, 2.33.
For the compound `COc1ccccc1NC(C)=O`, the logP stood at 0.67.
In the case of `CC(=O)OCC1=C(C(=O)O)N2C(=O)[C@@H](NC(=O)Cc3cccs3)[C@H]2SC1`, the logP came to 0.
With `O=Nc1c(O)ccc2ccccc12`, the log partition coefficient (logP) was 2.28.
In the case of `c1ccc2nccnc2c1` it was 1.32; in that of `COc1ccc(C(C)=O)cc1`, 1.74; in that of `Nc1nc2c(ncn2[C@H]2C[C@H](O)[C@@H](CO)O2)c(=O)[nH]1`, -1.3.
The compound `COc1ccccc1` showed a logP of 2.11.
Compound `CCCCC(C)=O` came in with a logP of 1.38.
With `CSc1nnc(C)c(=O)n1N`, the logP was -0.16.
As to `c1ccc2[nH]ncc2c1`, the logP came to 1.77.
In turn, `COc1cccc(C(=O)O)c1` returned a logP of 2.02.
`NC(=O)CCCCc1ccccn1` came in with a logP of 0.38.
Under `CCCC(C)(COC(N)=O)COC(N)=O` stands 0.7; under `CCOC1(c2ccccc2)OCCN(C)C1C` (configuration not stated), 2.27; under `O=Nc1ccc2ccccc2c1O`, 2.46.
On to `CN(N=O)C(N)=O`, for which the logP was -0.03.
Under `NNC(=O)c1ccnc(Cl)c1` stands 0.11; under `CC1=CC(=O)c2ccccc2C1=O`, 2.2; under `Oc1cccc(O)c1`, 0.8.
The compound `O=[N+]([O-])c1ccc2ccc[n+]([O-])c2c1` returned a logP of 0.36.
In the case of `N#Cc1ccc(NC=O)cc1` it was 1.08; in that of `Cc1ccc(C)cc1`, 3.15; in that of `CCCCCCCC(C)=O`, 3.14.
The compound `c1ccc2occc2c1` gave a logP of 2.67.
The compound `O=[N+]([O-])c1cc2ccccc2[n+]([O-])c1` showed a log partition coefficient (logP) of 0.56.
Consider `Nc1ncnc2c1ncn2[C@@H]1O[C@H](CO)[C@@H](O)[C@H]1O`, for which the logP is -1.05.
Regarding `c1ccc2[nH]cnc2c1`, the logP worked out at 1.32.
In the case of `C1CNCCN1`, the logP is -1.5.
Under `OCc1cccc(O)c1` stands 0.49; under `CCN(CC)CC`, 1.45.
Take `COc1ccccc1C(N)=O`: the logP came to 0.86.
As to `c1cn[nH]c1`, the logP stood at 0.26.
The compound `Cc1cccc(OCCN(C)C)c1` showed a logP of 2.05.
As for `NCCCC[C@H](N)C(=O)O`, the logP is -3.05.
As for `Cc1ccc2cccc(O)c2n1`, the logP came to 2.33.
In the case of `Oc1ccccn1` it was -0.58.
In the case of `CCC(C)n1nnc2ccccc21` (configuration not stated) it was 2.31; in that of `CCC1(c2ccccc2)C(=O)NC(=O)NC1=O`, 1.47; in that of `Cc1c(C)c(C)c(C)c(C)c1C`, 5.11.
As for `Cc1cc2ccccc2n1C`, the logP is 2.82.
